# Assay results taken from patent US12509459B2, “Inhibitors of NLRP3 inflammasome” (BioAge Labs, Inc., priority 2024, dated 2025).
# Columns and labels:
# NLRP3 = NLRP3 (Homo sapiens, UniProt Q96P20); test: THP-1 cell-based NLRP3 activation assay; design: endogenous in cells; host or cells: THP-1 cells (PMA-differentiated, LPS-primed, nigericin-stimulated); conditions: PMA-differentiated THP-1 cells, LPS 100 ng/mL then 10 μM nigericin
# Procedure, shortened: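 After 30 min compound preincubation, inflammasome activation was triggered with 10 μM nigericin (1 h) in LPS-primed (100 ng/mL, 3 h) THP-1 cells differentiated with PMA at 20 nM/24 h or 500 nM/3 h. CellTiter-Glo measured residual cell viability.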
# DIO mice = test: Diet-induced obesity (DIO) mouse model; assay type: in vivo; conditions: for body weight of high fat DIO mice / food consumption of high fat DIO mice: summary, comparable to the effect of Semaglutide
# foot gout mouse model = test: Foot gout mouse model; assay type: in vivo
# [1] = DIO mice, 5 to 100/75 mpk QD PO, FIG. 10
# [2] = DIO mice, 100/75 mpk, po, qd (75 mpk since day 9)
# [3] = DIO mice, doses of 50 mpk or higher, FIG. 11
# [4] = DIO mice, doses of 50 mpk or higher, treatment for 4 weeks, FIG. 13
# Sequence of NLRP3 (Q96P20 whole entry): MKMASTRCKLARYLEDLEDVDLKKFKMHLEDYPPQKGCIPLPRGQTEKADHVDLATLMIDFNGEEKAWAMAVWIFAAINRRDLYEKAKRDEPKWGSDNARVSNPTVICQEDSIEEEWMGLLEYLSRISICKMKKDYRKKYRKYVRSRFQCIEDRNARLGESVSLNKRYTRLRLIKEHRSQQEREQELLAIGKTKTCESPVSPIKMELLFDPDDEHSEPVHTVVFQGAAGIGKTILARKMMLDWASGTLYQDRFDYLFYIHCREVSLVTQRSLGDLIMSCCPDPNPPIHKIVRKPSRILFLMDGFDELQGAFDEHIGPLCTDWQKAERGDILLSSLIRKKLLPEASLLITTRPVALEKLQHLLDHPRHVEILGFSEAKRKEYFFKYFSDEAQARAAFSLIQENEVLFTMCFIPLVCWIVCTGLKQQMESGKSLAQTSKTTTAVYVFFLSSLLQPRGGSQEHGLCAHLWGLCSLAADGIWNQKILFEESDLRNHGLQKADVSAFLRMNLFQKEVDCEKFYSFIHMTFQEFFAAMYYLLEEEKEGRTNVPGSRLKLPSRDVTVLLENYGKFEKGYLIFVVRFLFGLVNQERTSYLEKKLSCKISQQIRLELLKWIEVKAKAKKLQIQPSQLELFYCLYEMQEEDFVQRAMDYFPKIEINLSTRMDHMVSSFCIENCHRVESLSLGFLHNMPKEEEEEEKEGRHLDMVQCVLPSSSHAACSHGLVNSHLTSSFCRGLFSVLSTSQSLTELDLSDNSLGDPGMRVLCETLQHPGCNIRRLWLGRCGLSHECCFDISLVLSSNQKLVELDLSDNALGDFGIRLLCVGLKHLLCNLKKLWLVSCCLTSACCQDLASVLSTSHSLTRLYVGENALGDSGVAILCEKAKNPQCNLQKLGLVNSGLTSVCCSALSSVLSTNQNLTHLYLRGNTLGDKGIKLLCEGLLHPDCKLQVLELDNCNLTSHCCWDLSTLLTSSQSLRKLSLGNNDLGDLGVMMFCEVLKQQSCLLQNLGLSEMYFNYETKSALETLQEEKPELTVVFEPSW
smiles,measurement,setting,value
CCOc1cc(C(=O)N(C)[C@H](CCN(C)C)c2cncc3cn[nH]c23)ccc1-c1cccc(F)c1 [Compound 040],IC50,NLRP3,< 100 nM
same,body weight of DIO mice,"DIO mice; 5 to 100/75 mpk QD PO, FIG. 8",dose-dependent effect on reducing body weight
same,Day 28 BW % change vs. DIO/VEH,"DIO mice; DIO mice, 5 mpk, po, qd",0.6%
same,Day 28 BW % change vs. baseline,"DIO mice; DIO mice, 5 mpk, po, qd",4.6%
same,food consumption,"DIO mice; DIO mice, 5 to 100/75 mpk QD PO, FIG. 9",dose-dependent effect on reducing food consumption
same,fat mass to body weight percentage,DIO mice; [1],dose-dependent effect on reducing fat mass to body weight percentage
same,lean mass to body weight percentage,DIO mice; [1],maintaining lean mass to body weight percentage
same,Day 28 BW % change vs. DIO/VEH,"DIO mice; DIO mice, 20 mpk, po, qd",−2.7%
same,Day 28 BW % change vs. baseline,"DIO mice; DIO mice, 20 mpk, po, qd",1.3%
same,Day 28 BW % change vs. DIO/VEH,"DIO mice; DIO mice, 50 mpk, po, qd",−11.6%
same,Day 28 BW % change vs. baseline,"DIO mice; DIO mice, 50 mpk, po, qd",−7.6%
same,Day 28 BW % change vs. DIO/VEH,DIO mice; [2],−22.0%
same,Day 28 BW % change vs. baseline,DIO mice; [2],−17.9%
same,inguinal fat to body weight percentage or muscle tissues to body weight percentage,"DIO mice; DIO mice, compared with Semaglutide treated mice, FIG. 13",no significant difference from Semaglutide treated mice
same,fasting glucose,DIO mice; [3],significantly reduced fasting glucose
same,insulin sensitivity,DIO mice; [3],improved insulin sensitivity
same,inguinal fat weight,DIO mice; [4],significantly reduced
same,liver weight,DIO mice; [4],significantly reduced
same,body weight of high fat DIO mice,DIO mice,significantly reduced
same,food consumption of high fat DIO mice,DIO mice,significantly reduced
same,treatment mode in foot gout model,foot gout mouse model,can be used as both a preventative and therapeutic treatment
same,swelling,foot gout mouse model; FIG. 16 and FIG. 17,reduce swelling in a foot gout mouse model in a dose dependent manner
[2H]C([2H])([2H])N(CC[C@H](c1cncc2cn[nH]c12)N(C)C(=O)c1ccc(-c2cccc(F)c2)c(OCC)c1)C([2H])([2H])[2H] [Compound 211],IC50,NLRP3,< 100 nM
same,body weight of DIO mice,"DIO mice; Compound 096/211 study, FIGS. 14A and 14B",dose-dependent effect on reducing body weight
same,Day 14 BW % change vs. baseline,"DIO mice; DIO mice, 50 mpk, po, qd",−14.9%
same,food consumption,"DIO mice; DIO mice, Compound 096/211 study, FIG. 14",dose-dependent effect on reducing food consumption
same,fat mass,"DIO mice; DIO mice, Compound 096/211 study, FIG. 15",caused a change in fat mass
same,body weight of high fat DIO mice,DIO mice,significantly reduced
same,food consumption of high fat DIO mice,DIO mice,significantly reduced
CCOc1cc(C(=O)N(C)[C@H](CO)c2cnc(C)c3cn[nH]c23)ccc1-c1ccccc1 [Compound 020],IC50,NLRP3,100 to 500 nM
CCOc1cc(C(=O)N(C)[C@H](CCNCCF)c2cncc3cn[nH]c23)ccc1-c1cccc(F)c1 [Compound 063],IC50,NLRP3,< 100 nM
CN(C)CC[C@H](c1cccc2cn[nH]c12)N(C)C(=O)c1ccc(-c2ccccc2)c(OC2CC2)c1 [Compound 199],IC50,NLRP3,< 100 nM
CCOc1cc(C(=O)N(C)[C@H](CCN(C)C)c2cccc3cn[nH]c23)ccc1-c1cccc(C#N)c1 [Compound 196],IC50,NLRP3,< 100 nM
CCOc1cc(C(=O)N(C)[C@H](CCN(C)C)c2cccc3cn[nH]c23)ccc1-c1cccc(C)c1 [Compound 195],IC50,NLRP3,< 100 nM
CCOc1cc(C(=O)N(C)[C@@H](CCO)c2cncc3cn[nH]c23)ccc1-c1cccc(F)c1 [Compound 009],IC50,NLRP3,< 100 nM
CCOc1cc(C(=O)N(C)C(c2cccc3cn[nH]c23)C2CN(C)C2)ccc1-c1cccc(Cl)c1 (stereo not shown) [Compound 241],IC50,NLRP3,< 100 nM
"CN(C(=O)c1ccc(-c2cccc(Cl)c2)c(OC2CC2)c1)[C@H](CO)c1cncc2cn[nH]c12 [Compound 006, (S)-3′-chloro-2-cyclopropoxy-N-(2-hydroxy-1-(1H-pyrazolo[4,3-c]pyridin-7-yl)ethyl)-N-methyl-[1,1′-biphenyl]-4-carboxamide]",IC50,NLRP3,< 100 nM
CCOc1cc(C(=O)N(C)[C@@H](CN(C)C)c2cncc3cn[nH]c23)ccc1-c1cccc(Cl)c1 [Compound 126],IC50,NLRP3,< 100 nM
CN(C(=O)c1ccc(-c2cccc(Cl)c2)c(OC2CC2)c1)[C@@H](CCO)c1cncc2cn[nH]c12 [Compound 012],IC50,NLRP3,100 to 500 nM
CCOc1cc(C(=O)N(Cc2cnc(C)c3cn[nH]c23)[C@H]2C[C@@H](NC)C2)ccc1-c1cccc(F)c1 [Compound 278],IC50,NLRP3,< 100 nM
CCOc1cc(C(=O)N(C)[C@H](CCN(C)C)c2cccc3cn[nH]c23)ccc1-c1cccc(F)c1 [Compound 186],IC50,NLRP3,< 100 nM
CCOc1cc(C(=O)N(Cc2cnc(C)c3cn[nH]c23)C(C)CO)ccc1-c1cccc(F)c1 (stereo not shown) [Compound 052],IC50,NLRP3,> 15000 nM
CCOc1cc(C(=O)N(C)[C@H](CCNCCF)c2cncc3cn[nH]c23)ccc1-c1ccccc1 [Compound 136],IC50,NLRP3,< 100 nM
CCOc1cc(C(=O)N(C)[C@H](CCN(C)C)c2cncc3cn[nH]c23)ccc1C(C)C [Compound 158],IC50,NLRP3,1000 to 15000 nM
CCOc1cc(C(=O)N(Cc2cncc3cn[nH]c23)[C@H]2CC[C@@H]2N(C)C)ccc1-c1cccc(Cl)c1 [Compound 288],IC50,NLRP3,100 to 500 nM
CCOc1cc(C(=O)N(C)[C@@H](c2cncc3cn[nH]c23)C2CN(CC)C2)ccc1-c1cccc(F)c1 [Compound 173],IC50,NLRP3,< 100 nM
CCOc1cc(C(=O)N(C)[C@H](CCN)c2cncc3cn[nH]c23)ccc1-c1cccc(F)c1 [Compound 038],IC50,NLRP3,< 100 nM
CCOc1cc(C(=O)N(C[C@H](C)O)[C@@H](C)c2cnc(C)c3cn[nH]c23)ccc1-c1cccc(F)c1 [Compound 061],IC50,NLRP3,> 15000 nM
CCOc1cc(C(=O)N(C)[C@H](CCNC)c2cccc3cn[nH]c23)ccc1-c1cccc(F)c1 [Compound 197],IC50,NLRP3,< 100 nM
CCOc1cc(C(=O)N(C)[C@H](CCN(CC)CCF)c2cncc3cn[nH]c23)ccc1-c1cccc(F)c1 [Compound 184],IC50,NLRP3,< 100 nM
CCOc1cc(C(=O)N(C)[C@H](CCN(C)C)c2cccc3cn[nH]c23)ccc1-c1cccc(Cl)c1 [Compound 213],IC50,NLRP3,< 100 nM
CCOc1cc(C(=O)N(C)[C@@H](CCN(C)C)c2cncc3cn[nH]c23)ccc1-c1cccc(F)c1 [Compound 162],IC50,NLRP3,< 100 nM
CCOc1cc(C(=O)N(C)[C@H](CCN2C[C@@H](F)[C@H](F)C2)c2cncc3cn[nH]c23)ccc1-c1cccc(F)c1 [Compound 093],IC50,NLRP3,< 100 nM
CCOc1cc(C(=O)N(Cc2cncc3cn[nH]c23)[C@H]2C[C@@H](N(C)C)C2)ccc1-c1cccc(C#N)c1 [Compound 290],IC50,NLRP3,< 100 nM
CCOc1cc(C(=O)N(C)[C@H](CCN(C)CCOC)c2cncc3cn[nH]c23)ccc1-c1cccc(Cl)c1 [Compound 229],IC50,NLRP3,< 100 nM
Cc1ncc([C@@H](CO)N(C)C(=O)c2ccc(-c3cccc(F)c3)c(OC3CC3)c2)c2[nH]ncc12 [Compound 022],IC50,NLRP3,< 100 nM
CCOc1cc(C(=O)N(CCO)Cc2cnc(C)c3cn[nH]c23)ccc1-c1cccc(F)c1 [Compound 051],IC50,NLRP3,< 100 nM
CCOc1cc(C(=O)N(C)[C@H](COC)c2cncc3cn[nH]c23)ccc1-c1cccc(F)c1 [Compound 013],IC50,NLRP3,< 100 nM
CCOc1cc(C(=O)N(C)[C@@H](CCN(C)C)c2ccc(C)c3cn[nH]c23)ccc1-c1cccc(F)c1 [Compound 201],IC50,NLRP3,100 to 500 nM
CCOc1cc(C(=O)N(C)[C@H](CCN(C)C)c2cnc(CO)c3cn[nH]c23)ccc1-c1cccc(Cl)c1 [Compound 068],IC50,NLRP3,< 100 nM
CCOc1cc(C(=O)N(Cc2cccc3cn[nH]c23)[C@H]2C[C@@H](N)C2)ccc1-c1cccc(F)c1 [Compound 250],IC50,NLRP3,< 100 nM
CCOc1cc(C(=O)N(C)[C@H](c2cncc3cn[nH]c23)C2CN(C)C2)ccc1-c1ccccc1 [Compound 133],IC50,NLRP3,< 100 nM
CCOc1cc(C(=O)N(C)[C@H](CC[N+]([O-])(CC)CC)c2cncc3cn[nH]c23)ccc1-c1cccc(Cl)c1 [Compound 255],IC50,NLRP3,< 100 nM
Cc1ncc([C@H](CCO)N(C)C(=O)c2ccc(-c3cccc(F)c3)c(OC3CC3)c2)c2[nH]ncc12 [Compound 031],IC50,NLRP3,> 15000 nM
CN(C)CC[C@H](c1cncc2cn[nH]c12)N(C)C(=O)c1ccc(-c2ccccc2)c(OC2CC2)c1 [Compound 073],IC50,NLRP3,< 100 nM
CCOc1cc(C(=O)N(C)[C@H](c2cnc(C)c3cn[nH]c23)C2CNC2)ccc1-c1cccc(F)c1 [Compound 072],IC50,NLRP3,< 100 nM
CCOc1cc(C(=O)N(Cc2cccc3cn[nH]c23)[C@H]2C[C@@H](N(C)C)C2)ccc1-c1cccc(F)c1 [Compound 251],IC50,NLRP3,< 100 nM
CCOc1cc(C(=O)N(C)[C@H](c2cnc(C)c3cn[nH]c23)C2CN(C)C2)ccc1-c1cccc(F)c1 [Compound 065],IC50,NLRP3,< 100 nM
CCOc1cc(C(=O)N(CCN2CCCCC2)Cc2cncc3cn[nH]c23)ccc1-c1cccc(F)c1 [Compound 117],IC50,NLRP3,< 100 nM
CCOc1cc(C(=O)N(Cc2cccc3cn[nH]c23)[C@H]2C[C@@H](NC)C2)ccc1-c1cccc(F)c1 [Compound 252],IC50,NLRP3,< 100 nM
C=CC(=O)NCC[C@H](c1cncc2cn[nH]c12)N(C)C(=O)c1ccc(-c2cccc(F)c2)c(OCC)c1 [Compound 080],IC50,NLRP3,< 100 nM
CCOc1cc(C(=O)N(Cc2cncc3cn[nH]c23)C2CC(N(C)C)C2)ccc1-c1ccccc1 (stereo not shown) [Compound 243],IC50,NLRP3,1000 to 15000 nM
CCOc1cc(C(=O)N(C)[C@H](CC[N+](C)(C)[O-])c2cncc3cn[nH]c23)ccc1-c1cccc(C)c1 [Compound 164],IC50,NLRP3,< 100 nM
CCOc1cc(C(=O)N(Cc2cncc3cn[nH]c23)[C@H]2C[C@@H](NC)C2)ccc1-c1ccccc1 [Compound 239],IC50,NLRP3,< 100 nM
CCOc1cc(C(=O)N(Cc2cccc3cn[nH]c23)[C@H]2C[C@@H](NC)C2)ccc1-c1cccc(C#N)c1 [Compound 265],IC50,NLRP3,< 100 nM
CCOc1cc(C(=O)N(Cc2cncc3cn[nH]c23)[C@H]2C[C@@H](N(C)C)C2)ccc1-c1ccccc1 [Compound 245],IC50,NLRP3,< 100 nM
